Data from US20240156965A1, “DICHALCOGENIDE PRODRUGS” (Ludwig-Maximilians-Universitat Munchen, priority 2021, published 2024).
“Also recorded” adds a separate entry of the source. Values belong to the compound of their own block, whether it stands above or below them.

What was measured:
TrxR1 = biological target: T1, TrxR1 (Homo sapiens, UniProt Q16881); test: Cellular quantitative HTS for TrxR1 inhibitors using P6 (LOPAC1280); type: cell-based; settings: for activity / hit status in cellular P6 screen: hits classed up to 20 μM; for pIC50 comparison between BAY 11-7085 and BAY 11-7082: despite ca. 1.1 Log P difference
T1 construct: endogenous in cells
T1 sequence (Q16881 151-649 limits assumed): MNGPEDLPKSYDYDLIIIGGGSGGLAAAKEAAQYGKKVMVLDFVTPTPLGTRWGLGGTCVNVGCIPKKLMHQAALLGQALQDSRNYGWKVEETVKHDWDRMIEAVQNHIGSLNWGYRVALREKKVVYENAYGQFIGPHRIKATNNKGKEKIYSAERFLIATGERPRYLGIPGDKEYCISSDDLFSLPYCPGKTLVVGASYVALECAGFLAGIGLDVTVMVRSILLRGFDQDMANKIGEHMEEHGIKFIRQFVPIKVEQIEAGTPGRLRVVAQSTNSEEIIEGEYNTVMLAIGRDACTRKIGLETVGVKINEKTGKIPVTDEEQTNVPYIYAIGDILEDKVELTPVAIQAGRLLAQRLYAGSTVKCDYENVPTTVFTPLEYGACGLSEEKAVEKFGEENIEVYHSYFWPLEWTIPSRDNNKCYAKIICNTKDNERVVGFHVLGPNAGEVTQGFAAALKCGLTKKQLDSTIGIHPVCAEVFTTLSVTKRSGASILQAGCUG
Source text: The stability and constant environment of P6's signal (crystallising fluorophore, protected from interferences), its low background (ESIPT quenched probe) and low crosstalk (high Stokes shift), and its ability to directly generate a readout, were promising features. We therefore set out to develop the first cellular quantitative HTS (qHTS) assay for TrxR1 inhibitors, using P6, and performing pilot screening with the 1280-compound LOPAC1280 library. LOPAC is intended to cover drugs and drug-like scaffolds with much comparative data on target selectivity, potency, cellular and in vivo bioactivity, without focus on any particular mechanism of action. The LOPAC library was used in the only previously reported qHTS enzymatic TrxR assay (in 2011), and there is 82% overlap in composition between the 2011 and 2021 version (Prast-Nielsen, S. et al., Free Radical Biology and Medicine 50, 1114-1123 (2011)).
Cellular screening using P6, optimized for HTS with 1536-well plates (assay volume 6 μL, 500 cells/well) over 4 h run-time, reproduced the strong performance seen in 96-well format. Untreated vs no-cell controls gave a 7-fold raw signal to background ratio [S:B] without background compensation, with a high Z′ value of 0.64, suitable for HTS (FIG. 5a). P6 signal was linear over the assay time, and linearly reflected turnover rate (varied P6 concentration or cell count; FIG. 5b). Pre-incubating cells for 1 h with reference inhibitors prior to P6 gave concentration-dependent inhibition consistent with reported values (FIG. 5c).
A LOPAC1280 screen using this assay protocol performed well (Z′=0.63, S:B 7:1). Compounds with apparent toxicity within the assay time were excluded by a separate viability counter-assay. Moderate cut-off criteria (IC50<20 μM and curve form) gave a <1.5% hit rate (18 of 1278 compounds, plus TRi-1 and TRi-2; FIG. 5d). […] Matching expectations, with the exception of auranofin, none of these species approached the potency of TRi-1 (Stafford, W. C. et al., Sci. Transl. Med. 10, eaaf7444 (2018)).

[1] = test system: HeLa cervical cancer cell line; test: Cellular reduction assay in HeLa cells (fluorescence timecourse); type: cell-based, human; settings: time- and dose-dependence
Experimental: Assay Conditions: Cells were cultured under standard conditions (Gao, L. et al. Cell Chemical Biology 2021, 28, 1-14. https://doi.org/10.1016/j.chembiol.2020.11.007), left to adhere for 24 h, then compounds were added to 100 μM with 1% vol DMSO. Fluorescence timecourse measurements were acquired as in the chemoreductant assay, with all conditions in triplicates.
Data Representation: F.I.(t) is the fluorescence intensity signal increase as compared to time zero signal (fluorescence intensity immediately following compound addition, before probe activation could occur), in arbitrary units although with the same detection settings for all probes releasing the same cargo. This corresponds to reduction-triggered cargo release.

TrxR [2] = biological target: T2, TrxR (Rattus norvegicus, UniProt O89049); settings: cited from earlier work
T2 sequence (O89049 1-499): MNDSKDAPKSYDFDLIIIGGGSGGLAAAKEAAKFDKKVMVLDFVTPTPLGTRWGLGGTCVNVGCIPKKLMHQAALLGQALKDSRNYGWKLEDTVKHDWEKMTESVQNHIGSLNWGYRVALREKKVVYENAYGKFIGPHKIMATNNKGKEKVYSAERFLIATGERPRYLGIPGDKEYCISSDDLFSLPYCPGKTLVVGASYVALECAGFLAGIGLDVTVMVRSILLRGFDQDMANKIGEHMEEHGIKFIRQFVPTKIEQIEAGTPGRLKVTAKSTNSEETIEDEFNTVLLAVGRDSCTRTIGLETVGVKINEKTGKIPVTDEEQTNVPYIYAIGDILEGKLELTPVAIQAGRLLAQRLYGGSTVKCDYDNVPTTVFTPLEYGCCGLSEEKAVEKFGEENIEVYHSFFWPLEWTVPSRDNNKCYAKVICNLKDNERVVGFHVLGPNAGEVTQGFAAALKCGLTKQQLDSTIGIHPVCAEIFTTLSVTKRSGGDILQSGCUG

[3] = Challenge with monothiol reductant GSH, cell-free fluorogenic cargo release; type: physicochemical; settings: 10 μM probe; for sensitivity to GSH in GSH titration, signal F/F^TCEP: 3 h timepoint, GSH up to 10 mM; for resistance to GSH-triggered release of fluorescent cargo PQ-OH (timecourse): supraphysiological GSH 10 mM, TE buffer pH 7.4, 37 °C; for cargo release when challenged with GSH / GSH system reductants: relevant cellular levels
Source text: (§1) This cell-free assay examined the stability of dichalcogenide-based reduction-triggered compounds of the invention when exposed to cellular monothiol reductant GSH, and its cellular partner reductants glutathione reductase (GR) and glutaredoxins (Grx1 and Grx2).
(§2) Assay Conditions: A black 96-well plate with black bottom was charged with solutions of fluorophore-releasing reduction-triggered probes that are compounds of the invention (P1, P2, P3, P6 and P7) or that are not compounds of the invention and reveal the performance of prior art systems (disulfide X26), reaching 100 μL final volume, 1% final DMSO, 10 μM probe, aq. TE buffer (pH 7.4), with the indicated concentrations of reductant (in FIG. 1a) or concentration ratios of reductant to probe (in FIG. 1b-d). TCEP (100 μM) was used as a quantitative reference reductant; and in the GR/GSH/Grx assays (FIG. 1c-d), GR was used at 20 nM, GSH at 100 μM, to maintain Grx in a reduced state suitable for challenging the probes without supplying a high concentration of either GSH or GR. Reaction mixtures were incubated at 37° C. for up to 6 h while measuring fluorescence intensity F over time, using a BMG Labtech FLUOstar Omega platereader (λexc=355 nm, λem=530 nm).
(§3) Data Representation: F^TCEP is the maximum possible fluorescence increase, corresponding to complete reduction-triggered cargo release by the TCEP incubation. F/F^TCEP thus gives the fluorescence intensity, as a fraction of the maximum possible fluorescence signal, at the indicated times.

TrxR [4] = settings: cell-free; cited from earlier work
[5] = test system: glutaredoxins (Grx1 and Grx2) with GR and GSH; test: Challenge with GR/GSH/Grx system reductants, cell-free; type: biochemical; settings: 10 μM probe, GR 20 nM, GSH 100 μM, Grx1 or Grx2 up to physiological concentrations
Source text: as §1, §2, §3

[6] = biological target: T3, human recombinant thioredoxin reductase 1 (TrxR1) (Homo sapiens, UniProt Q16881); test: Enzymatic activation assay with TrxR1, cell-free; type: biochemical; settings: 10 μM probe, 20 nM TrxR1, 100 μM NADPH, 37 °C
T3 sequence (Q16881 1-499 isoform Q16881-5): T1 sequence (Q16881 151-649 limits assumed)
Experimental: This cell-free assay (see FIG. 2) examined the processing of dichalcogenide-based fluorophore-releasing reduction-triggered probes that are compounds of the invention, by components of the cellular thioredoxin system.
Assay conditions and data representation: A black 96-well plate with black bottom was charged with solutions of probes (P1, P2, P3, P6, P7) to reach final reaction conditions: 100 μL of aq. TE buffer (pH 7.4), 10 μM probe concentration, 1 vol % DMSO, and 20 nM of human recombinant thioredoxin reductase 1 (TrxR1; in FIG. 1a), or 20 nM of either TrxR1 or thioredoxin reductase Sec498Cys mutant (TrxR1 U498C or “mut”; in FIG. 1b), or the indicated probe-to-reductant concentration ratios of TrxR1 (in FIG. 1c) or human recombinant thioredoxin 1 (Trx1; in FIG. 1d); with the final step being the addition of NADPH (100 μM final). The reaction mixtures were incubated at 37° C. for 3 to 6 h as shown with timecourse measurements of fluorescence as for FIG. 1. Data representation as for FIG. 1.

activity / hit status in cellular P6 screen (TrxR1): non-obvious hit
Structure (SMILES): NC1(C(=O)O)CCc2cc(C(=O)O)ccc21 (stereo not drawn) [AIDA]

Structure (SMILES): CN1CCN(C(=O)CCN(C(=O)Oc2ccc(Cl)cc2-c2nc3ccc(Cl)cc3c(=O)[nH]2)C2CCCCC2)CC1 [X28, reference compound]
fluorescence signal generation F.I.(t) in HeLa cells [1]: does not generate signal; also recorded: did not generate signal

Structure (SMILES): Oc1ccc2ccccc2c1SSc1c(O)ccc2ccccc12 [IPA-3]
activity / hit status in cellular P6 screen (TrxR1): active in the cellular screen | activity in enzymatic (cell-free) TrxR screen (TrxR [2]): inactivity in the enzymatic assay

Structure (SMILES): CN(C(=O)Oc1ccc(Cl)cc1-c1nc2ccc(Cl)cc2c(=O)[nH]1)C1CCS[Se]C1 (stereo not drawn) [P1]
sensitivity to GSH in GSH titration, signal F/F^TCEP [3]: completely insensitive | resistance to GSH-triggered release of fluorescent cargo PQ-OH (timecourse) [3]: entirely | cargo release when challenged with GSH / GSH system reductants [3]: totally resisted releasing cargo

pIC50 comparison between BAY 11-7085 and BAY 11-7082 (TrxR1): no change
Structure (SMILES): CC(C)(C)c1ccc(S(=O)(=O)/C=C/C#N)cc1 [BAY 11-7085]

Structure (SMILES): OC1C[Se][Se]CC1O (stereo not drawn) [E3]
reduction by TrxR in vitro (TrxR [4]): processed by TrxR

Structure (SMILES): NC1CC[Se][Se]C1 (stereo not drawn) [E4]
reduction by TrxR in vitro (TrxR [4]): resistant to TrxR

Structure (SMILES): OC[C@H]1O[C@H]([S-])[C@H](O)[C@@H](O)[C@@H]1O.[Au+] [aurothioglucose]
pIC50/potency lower than auranofin (TrxR1; relative to ester prodrug auranofin): 10 fold

Structure (SMILES): C=CCN1CCc2c(cc(O)c(O)c2Cl)C(c2ccccc2)C1 (stereo not drawn) [chloro-APB]
activity / hit status in cellular P6 screen (TrxR1): active in the cellular screen | activity in enzymatic (cell-free) TrxR screen (TrxR [2]): inactivity in the enzymatic assay

Structure (SMILES): CN(C(=O)Oc1ccc(Cl)cc1-c1nc2ccc(Cl)cc2c(=O)[nH]1)C1CC[Se]SC1 (stereo not drawn) [P2]
sensitivity to GSH in GSH titration, signal F/F^TCEP [3]: very low sensitivity | resistance to GSH-triggered release of fluorescent cargo PQ-OH (timecourse) [3]: majorly | cargo release when challenged with GSH / GSH system reductants [3]: high resistance to GSH challenge | triggering by GR/GSH/Grx systems [5]: total resistance to Grx challenge

pIC50 comparison between BAY 11-7085 and BAY 11-7082 (TrxR1): no change
Structure (SMILES): Cc1ccc(S(=O)(=O)/C=C/C#N)cc1 [BAY 11-7082]

Structure (SMILES): CN(N=O)c1cc(O)ccc1O [Dephostatin]
ratio of cell-free to cellular potency (potency loss in cells) (TrxR1; shared hits of cellular and cell-free qHTS): > 10 fold

Structure (SMILES): CN(C(=O)Oc1ccc(Cl)cc1-c1nc2ccc(Cl)cc2c(=O)[nH]1)C1CC[Se][Se]C1 (stereo not drawn) [P3]
sensitivity to GSH in GSH titration, signal F/F^TCEP [3]: completely insensitive | resistance to GSH-triggered release of fluorescent cargo PQ-OH (timecourse) [3]: entirely | cargo release when challenged with GSH / GSH system reductants [3]: totally resisted releasing cargo | cargo release on exposure to TrxR1 (timecourse) [6]: stable to this challenge; also recorded: nonresponsive to TrxR

Structure (SMILES): COC[C@H]1OC(=O)c2coc3c2[C@@]1(C)C1=C(C3=O)[C@@H]2CCC(=O)[C@@]2(C)C[C@H]1OC(C)=O [wortmannin]
activity in enzymatic (cell-free) TrxR screen (TrxR [2]): activity in the enzymatic screen
